Measured values published in patent publication US10597388B2, “Pyridazinone herbicides” (FMC CORPORATION, priority 2014, dated 2020).

Assays:
Format in all cases: in vivo
[1] = test system: galium (catchweed bedstraw, Galium aparine); experiment: Test A greenhouse herbicide test, postemergence; conditions: for Plant response rating, Galium: 125 g ai/ha, 0 to 100 scale where 0 is no effect and 100 is complete control; for Galium plant response rating: 500 g ai/ha, 0 to 100 scale, 0 is no effect, 100 is complete control
Procedure, shortened: (§1)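 Scores are visual injury ratings from 0 (no effect) to 100 (complete control) versus untreated plants, taken roughly 10 d after treatment in the greenhouse. Treatment was postemergence, on one- to two-leaf plants 2–10 cm high growing in a loam soil/sand mix.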

[2] = test system: blackgrass (Alopecurus myosuroides); experiment: Test A greenhouse herbicide test, postemergence; conditions: for Plant response rating, Blackgrass: 125 g ai/ha, 0 to 100 scale where 0 is no effect and 100 is complete control; for Blackgrass plant response rating: 500 g ai/ha, 0 to 100 scale, 0 is no effect, 100 is complete control
Procedure, shortened: as §1

corn (Zea mays) = experiment: Test A greenhouse herbicide test, pre- and postemergence; conditions: Postemergence; for Plant response rating, Corn: 125 g ai/ha, 0 to 100 scale where 0 is no effect and 100 is complete control; for Corn plant response rating: 500 g ai/ha, 0 to 100 scale, 0 is no effect, 100 is complete control
Procedure, shortened: (§2)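 Visual injury ratings, 0 (no effect) to 100 (complete control), versus untreated plants after roughly 10 d in a greenhouse. Compounds, formulated in a surfactant-containing non-phytotoxic solvent, were sprayed on loam–sand soil after sowing (pre) or on one- to two-leaf plants 2–10 cm tall (post).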

[3] = test system: ragweed (common ragweed, Ambrosia elatior); experiment: as above
Procedure, shortened: as §2

[4] = test system: barnyardgrass (Echinochloa crus-galli); experiment: as above
Procedure, shortened: as §2

[5] = test system: foxtail, giant (giant foxtail, Setaria faberii); experiment: as above
Procedure, shortened: as §2

[6] = test system: pigweed (Amaranthus retroflexus); experiment: as above
Procedure, shortened: as §2

[7] = test system: barnyardgrass (Echinochloa crus-galli); experiment: Test C greenhouse herbicide test, pre- and postemergence
Procedure, shortened: (§3)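 Greenhouse pots; pre-em on seeded loam:sand blend, post-em on 2–18 cm plants (1–4 leaf) in sphagnum peat/vermiculite medium. Formulation: non-phytotoxic solvent + surfactant. Read-out: visual % control (0–100) vs controls at 13–15 d.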

[8] = test system: galium (catchweed bedstraw, Galium aparine); experiment: as above
Procedure, shortened: as §3

[9] = test system: nutsedge, yellow (yellow nutsedge, Cyperus esculentus); experiment: as above
Procedure, shortened: as §3

[10] = test system: wheat (winter wheat, Triticum aestivum); experiment: as above
Procedure, shortened: as §3

[11] = Postemergence, 125 g ai/ha, 0 to 100 scale where 0 is no effect and 100 is complete control
[12] = Postemergence, 500 g ai/ha, 0 to 100 scale, 0 is no effect, 100 is complete control
[13] = Preemergence, 125 g ai/ha, 0 to 100 scale where 0 is no effect and 100 is complete control
[14] = Preemergence, 500 g ai/ha, 0 to 100 scale where 0 is no effect and 100 is complete control
[15] = Postemergence, 31 g ai/ha, 0 to 100 scale (0 no effect, 100 complete control)
[16] = Postemergence, 125 g ai/ha, scale 0 to 100, 0 is no effect, 100 is complete control
[17] = Postemergence, 250 g ai/ha, scale 0 to 100, 0 no effect, 100 complete control, 13 to 15 d
[18] = Preemergence, 31 g ai/ha, scale 0 to 100, 0 is no effect, 100 is complete control
[19] = Preemergence, 62 g ai/ha, scale 0 to 100, 0 is no effect, 100 is complete control
[20] = Preemergence, 125 g ai/ha, scale 0 to 100, 0 is no effect, 100 is complete control
[21] = Preemergence, 250 g ai/ha, scale 0 to 100 (0 no effect, 100 complete control)
[22] = postemergence, 62 g ai/ha, scale 0 to 100, 0 no effect, 100 complete control

C#CCOC(=O)Oc1c(C)nn(C)c(=O)c1-c1c(C)sc2ccc(C)cc12 [Compound 87]
Plant response rating, Galium [1]: 90
Galium plant response rating [1]: 90
Plant response rating, Blackgrass [2]: 80
Blackgrass plant response rating [2]: 80
Plant response rating, Corn (corn (Zea mays)): 0
Corn plant response rating (corn (Zea mays)): 0
Plant response rating, Ragweed [3, 11]: 80
Ragweed plant response rating [3, 12]: 90
Ragweed plant response rating [3, 13]: 70
Plant response rating, Ragweed [3, 14]: 80
Plant response rating, Barnyardgrass [4, 11]: 40
Barnyardgrass plant response rating [4, 12]: 80
Barnyardgrass plant response rating [4, 13]: 50
Plant response rating, Barnyardgrass [4, 14]: 80
Plant response rating, Foxtail, Giant [5, 11]: 70
Foxtail, Giant plant response rating [5, 12]: 80
Foxtail, Giant plant response rating [5, 13]: 80
Plant response rating, Foxtail, Giant [5, 14]: 100
Plant response rating, Pigweed [6, 11]: 80
Pigweed plant response rating [6, 12]: 90
Pigweed plant response rating [6, 13]: 100
Plant response rating, Pigweed [6, 14]: 100
Barnyardgrass plant response rating [7, 15]: 25
Plant response rating, Barnyardgrass [7, 16]: 35
Plant response rating, Barnyardgrass [7, 17]: 45
Plant response rating, Barnyardgrass [7, 18]: 5
Plant response rating, Barnyardgrass [7, 19]: 35
Plant response rating, Barnyardgrass [7, 20]: 65
Barnyardgrass plant response rating [7, 21]: 85
Barnyardgrass plant response rating [7, 22]: 25
Plant response rating, Galium [8, 16]: 95
Plant response rating, Galium [8, 17]: 98
Plant response rating, Galium [8, 18]: 95
Plant response rating, Galium [8, 19]: 95
Plant response rating, Galium [8, 20]: 98
Galium plant response rating [8, 21]: 98
Galium plant response rating [8, 22]: 95
Plant response rating, Nutsedge, Yellow [9, 16]: 80
Plant response rating, Nutsedge, Yellow [9, 17]: 85
Plant response rating, Nutsedge, Yellow [9, 18]: 10
Plant response rating, Nutsedge, Yellow [9, 19]: 35
Plant response rating, Nutsedge, Yellow [9, 20]: 85
Nutsedge, Yellow plant response rating [9, 21]: 80
Nutsedge, Yellow plant response rating [9, 22]: 80
Plant response rating, Wheat [10, 16]: 0
Plant response rating, Wheat [10, 17]: 0
Plant response rating, Wheat [10, 18]: 0
Plant response rating, Wheat [10, 19]: 0
Plant response rating, Wheat [10, 20]: 0
Wheat plant response rating [10, 21]: 0
Wheat plant response rating [10, 22]: 0

CC(=O)Oc1c(C)nn(C)c(=O)c1-c1ccc(F)c2ccccc12 [Compound 90]
Plant response rating, Galium [1]: 100
Galium plant response rating [1]: 100
Plant response rating, Blackgrass [2]: 70
Blackgrass plant response rating [2]: 90
Plant response rating, Corn (corn (Zea mays)): 20
Corn plant response rating (corn (Zea mays)): 30
Plant response rating, Ragweed [3, 11]: 100
Ragweed plant response rating [3, 12]: 100
Ragweed plant response rating [3, 13]: 90
Plant response rating, Ragweed [3, 14]: 100
Plant response rating, Barnyardgrass [4, 11]: 80
Barnyardgrass plant response rating [4, 12]: 100
Barnyardgrass plant response rating [4, 13]: 60
Plant response rating, Barnyardgrass [4, 14]: 100
Plant response rating, Foxtail, Giant [5, 11]: 80
Foxtail, Giant plant response rating [5, 12]: 100
Foxtail, Giant plant response rating [5, 13]: 50
Plant response rating, Foxtail, Giant [5, 14]: 100
Plant response rating, Pigweed [6, 11]: 100
Pigweed plant response rating [6, 12]: 100
Pigweed plant response rating [6, 13]: 100
Plant response rating, Pigweed [6, 14]: 100
Barnyardgrass plant response rating [7, 15]: 30
Plant response rating, Barnyardgrass [7, 16]: 50
Plant response rating, Barnyardgrass [7, 17]: 70
Plant response rating, Barnyardgrass [7, 18]: 35
Plant response rating, Barnyardgrass [7, 19]: 65
Plant response rating, Barnyardgrass [7, 20]: 75
Barnyardgrass plant response rating [7, 21]: 95
Barnyardgrass plant response rating [7, 22]: 35
Plant response rating, Galium [8, 16]: 95
Plant response rating, Galium [8, 17]: 95
Galium plant response rating [8, 22]: 95
Plant response rating, Nutsedge, Yellow [9, 16]: 90
Plant response rating, Nutsedge, Yellow [9, 17]: 85
Plant response rating, Nutsedge, Yellow [9, 18]: 55
Plant response rating, Nutsedge, Yellow [9, 19]: 45
Plant response rating, Nutsedge, Yellow [9, 20]: 85
Nutsedge, Yellow plant response rating [9, 21]: 90
Nutsedge, Yellow plant response rating [9, 22]: 80
Plant response rating, Wheat [10, 16]: 10
Plant response rating, Wheat [10, 17]: 30
Plant response rating, Wheat [10, 18]: 5
Plant response rating, Wheat [10, 19]: 0
Plant response rating, Wheat [10, 20]: 35
Wheat plant response rating [10, 21]: 40
Wheat plant response rating [10, 22]: 10
